Patent publication US11433033B2, “2,4-dinitrophenol formulations and methods using same” (priority 2013, dated 2022)
Entries after “also recorded” stand apart in the source; their conditions may differ. Read-outs that look alike come from different tables or passages of the source.

How the values were obtained:
high fat fed rats = experiment: Hepatic fluxes (VTCA, VPC, Vfa, VPDH) by [3-13C] lactate infusion, NMR-LC/MS/MS; conditions: rat, in vivo
Protocol: To measure total glutamate enrichment from livers of rats infused with [3-^13C] lactate, ˜100 mg frozen liver were homogenized in 400 μL ice-cold 50% acetonitrile. The samples were centrifuged at 10,000 g for 10 min, and the supernatant was isolated. After overnight storage at 4° C., the samples were centrifuged at 10,000 g for 10 min through a Nanosep 100 k Omega filter (Pall Life Sciences). The flow-through was separated on a hypercarb column (Thermo Scientific; 4.6×100 mm; 5 μm particle size) before ionization for multiple reaction monitoring analysis by LC/MS/MS (Applied Biosystems MDS SCIEX, 4000 Q-TRAP). […]
Spectra were acquired with relaxation time=1 s, dummy scans=32, and number of scans=8,192 per block×3 blocks. Correction factors for differences in T relaxation times were determined from fully relaxed spectra of natural abundance glutamate and glucose solutions. […]
Total glucose enrichment in the NMR extract was determined by derivatizing 20 μL of the NMR extract with 100 μL methanol, then drying overnight in a Speed-Vac. […]
To measure positional alanine enrichment from [3-^13C] lactate infused rat livers, liver samples were extracted for NMR as described above, and the enrichment at [2-^13C] and [3-^13C] alanine was measured by proton-observed, carbon-edited NMR as we have reported (Alves et al., 2011, Hepatology 53:1175-1181). […]

[1] = test system: rat model of NAFLD and whole body insulin resistance; experiment: Continuous low dose intragastric DNP infusion (2 mg/kg per day, 5 days) in high fat fed rats; type: in vivo
Protocol: For the intragastric DNP infusion studies, rats previously fed high fat diet for 2 weeks were placed in a Covance infusion harness attached to a single-axis counter-balanced swivel mount and a stainless steel one-channel swivel (all from Instech Solomon) to protect the catheters and allow the animals free access to the cage. DNP (2 mg/kg per day) or vehicle (10% dimethylsulfoxide/90% saline vehicle) was infused continuously through the […] for 5 days.
Plasma insulin and glucagon were measured by radioimmunoassay. Plasma glucose was measured enzymatically by the YSI Life Sciences 2700 Select Biochemistry Analyzer. Plasma concentrations of twelve inflammatory markers, adiponectin, and FGF-21 were assessed by ELISA (QIAGEN, Life Technologies, and Millipore, respectively). Liver glycogen was measured by amyloglucosidase digestion (Passonneau & Lauderdale, 1974, Anal. Biochem. 60:405-12). Non-esterified fatty acid concentrations were measured by an enzymatic kit (Wako).
(§1) Plasma triglycerides were measured using a Wako reagent. Liver and quadriceps triacylglycerol were extracted using the method of Bligh and Dyer (Bligh & Dyer, 1959, Can. J. Biochem. Physiol. 37:911-7) and quantified spectrophotometrically using a reagent from Diagnostic Chemicals Ltd. Liver and quadriceps DAG and ceramide concentrations were measured by liquid chromatography/mass spectrometry/mass spectrometry (LC/MS/MS) (Yu, et al., 2002, J. Biol. Chem. 277:50230-6), as were acylcarnitine concentrations (An, et al., 2004, Nat. Med. 10:268-74). Very low-density lipoprotein (VLDL) export was measured (Lee, et al., 2011, Hepatology 54:1650-60). Liver acetyl and malonyl CoA concentrations were measured by LC/MS/MS (Hosokawa, et al., 1986, Anal. Biochem. 153:45-9; Roughan, 1994, Biochem. J. 300:355-8).

in vivo [2] = type: in vivo, Sprague-Dawley rats; conditions: for concentration at 5 days: Sprague-Dawley, rat, in vivo, 2 mg/kg per day
[3] = test system: two-week high fat fed rats; type: in vivo, rat
Protocol: ERDNP was formulated by Emerson Resources Inc. (Malvern, Pa.) with sustained-release ethylcellulose coating. Rats used for the NAFLD reversal studies were fed high fat diet for 2 weeks, at the end of which they were treated for three days with peanut butter to acclimate them to this food. They were then treated daily with ERDNP mixed in peanut butter, or peanut butter vehicle, at the doses specified in the text daily for 5 days. Zucker Diabetic Fatty rats were treated with ERDNP (1 mg/kg) in peanut butter or peanut butter vehicle daily for 14 days. Blood glucose was measured by glucometer (Abbott) from the tail vein every three days.
(§2) Alanine aminotransferase, aspartate aminotransferase, and blood urea nitrogen were measured using the COBAS Mira Plus, and creatinine by LC/MS/MS. Body temperature was measured using a rectal probe (Physitemp Instruments). Histology slides were stained with hematoxylin & eosin, Sirius Red, and TUNEL stains.
as §1

rats = experiment: Toxicity studies: rectal temperature, liver enzymes, BUN, creatinine, histology; type: in vivo, rat
Protocol: as §2
Liver and kidney samples were prepared and stained with hematoxylin & eosin by the Yale Research Histology core, and analyzed as described (Kleiner et al., 2005, Hepatology 41:1313-1321).

in vivo [4] = type: in vivo, Sprague-Dawley rats
Protocol: Rats consumed the concentrations of DNP or ERDNP specified in the text orally, mixed in peanut butter. All rats used for the kinetics studies consumed the entirety of the peanut butter and protonophore within 2 minutes.
DNP concentrations were measured in plasma, liver, kidney, WAT, quadriceps, heart, and brain of Sprague-Dawley rats by LC/MS/MS (Perry, et al., 2013, Cell. Metab. 18:740-8). Rats treated with DNP were sacrificed 1 hour after treatment with DNP, and those treated with ERDNP were sacrificed 8 hours after treatment, as these were the times determined in the plasma DNP studies to represent the peak plasma DNP concentrations (FIGS. 21A-21B). The minimal detection limit of the method was determined to be […], as this was the minimum concentration of solutions of known quantities of DNP in DMSO measured by the method with less than 20% error in each of three replicates.
LC/MS/MS method development and analysis were performed on the Applied Biosystems 4000 QTRAP (Foster City, Calif.), equipped with a Shimadzu ultra fast liquid chromatography (UFLC) system. Electrospray ionization (ESI) source with negative-ion detection was shown as the most sensitive for both qualitative and quantitative analysis of DNP. The quantitative analysis of DNP was monitored in MRM mode with an ion pair (183.0/109.0). The preferred parameters are: curtain gas 25; collision gas 9, probe temperature 480° C.; […]; ion source gas 2 25; declustering potential (DP) −45 V; entrance potential (EP) −10 V; collision energy (CE) −35 V and collision cell exit potential −12 V.
Plasma samples (10-100 μL) were mixed with 2.0 ml pre-chilled chloroform/methanol (v/v: 2/1) containing 0.01% BHT in 5 ml glass vials, to which was added 250 μl water together with 10 nmol DNP-D3 and 10 nmol DNPME-D6 as the internal standards. The mixtures were vortexed for 10 seconds before centrifugation at 4000 rpm for 10 min. The bottom organic layer was carefully collected and dried with a steady stream of nitrogen gas. The residual was reconstituted in 200 μl methanol for LC/MS/MS analysis for DNP and/or DNPME metabolites.
Frozen tissue samples (˜100 mg) were weighed and suspended in 2 ml microcentrifuge tubes with 1.6 ml pre-chilled chloroform/methanol (v/v: 2/1) containing 0.01% BHT and one metal bead, and then added 10 nmol DNP-d3 (Cambridge Isotopes, Andover, Mass.) as the internal standards. The tissue samples were disrupted with Qiagen TissueLyser at 30 Hz for 15 min, and then transferred into 5 ml glass vials, followed by addition of 0.5 ml chloroform and 250 μl water into each samples. The samples were centrifuged at 4000 rpm for 10 min after vortexed for 10 seconds. The bottom organic layer was collected and dried with a gentle flow of nitrogen. The residual was reconstituted in 200 μl methanol for LC/MS/MS analysis of DNP.

[5] = intragastric DNP 2 mg/kg per day, 5 days

For O=[N+]([O-])c1ccc(O)c([N+](=O)[O-])c1 [DNP, 2,4-dinitrophenol], the “concentrations of DNP found to promote subtle increases in hepatic mitochondrial uncoupling” value (high fat fed rats) was 1 to 5 µM, the “liver enzymes, blood urea nitrogen (BUN) or creatinine” value ([1]; chronic intragastric DNP infusion 2 mg/kg per day) was “no observed changes” and the “fasting plasma glucose and insulin concentrations” value [1, 5] was “lower”. For the same compound, the “reductions in liver and muscle TAG and diacylglycerol (DAG) content” value [1, 5] was over 50%, the “reductions in plasma triglycerides” value [1, 5] was over 80% and the tissue ceramide content [1, 5] was “no changes”. The concentration at 5 days (in vivo [2]; intragastric DNP infusion 2 mg/kg per day, 5 days, rats, read-out: steady state liver DNP concentration) was about 1000 nM, the concentration at 5 days (in vivo [2]; intragastric DNP infusion 2 mg/kg per day, 5 days, rats, read-out: steady state plasma DNP concentration) was about 3000 nM and the “sustained plasma and tissue concentrations of DNP that reversed hepatic steatosis and insulin resistance” value (in vivo [2]; continuous intragastric DNP infusion, rat model of NAFLD) was 1-3 VM. For the same compound, the “plasma DNP concentrations, fold lower than the threshold where DNP toxicity is first detected” value (in vivo [2]; continuous low dose intragastric infusion of DNP) was about 100 fold, the “sustained plasma and liver concentrations of DNP that reversed fatty liver and whole body insulin resistance” value (in vivo [2]; continuous low dose intragastric infusion, high fat rat model of NAFLD) was 1 to 3 µM and the “DNP concentration in skeletal muscle” value (in vivo [2]; intragastric DNP infusion 2 mg/kg per day, 5 days, rats) was “negligible”. The “daily doses that raised ALT” value ([3]; daily for five days) was “above 2 mg/kg”, the “daily doses that raised AST concentrations” value ([3]; daily for five days) was “above 1 mg/kg” and the “effect of the highest dose on BUN” value ([3]; daily for five days) was “raised BUN”. The “lowest effective dose to decrease liver triglyceride” value ([3]; daily for five days, two-week high fat fed rats) was 5 mg/kg, the “ratio of toxic to therapeutic dose” value ([3]; rats) was 0.4 and the toxic dose ([3]; rats) was 2 mg/kg. The “toxic plasma threshold of DNP” value (rats; plasma concentration) was about 400 µM, the “relation between plasma DNP concentration and body temperature” value (rats; rats treated with 10-50 mg/kg DNP) was “strong correlation” and the “tissue DNP concentrations after chronic treatment compared with one (or five) daily doses” value (in vivo [4]; 1 mg/kg per day, rats) was “no differences; also recorded: did not differ significantly”. For the same compound, the “maximum plasma concentration of DNP, fold higher with DNP treatment than with ERDNP” value (in vivo [4]; 25 mg/kg DNP versus 1 mg/kg ERDNP) was 30 fold, the concentration at 8 hours (in vivo [4]; Sprague-Dawley, rat, in vivo, 1 mg/kg, 8 hours after the last of five daily 1 mg/kg doses (FIG. 21J), read-out: DNP concentrations in all tissues following chronic treatment) was under 10000 nM and the half-life (in vivo [4]; Sprague-Dawley, rat, in vivo, 25 mg/kg, plasma DNP, rats) was 8 to 12 h. For the same compound, the “peak DNP liver concentration” value (in vivo [4]; dose of DNP 5 mg/kg, rat) was about 60 µM, the “peak plasma DNP concentration” value (in vivo [4]; dose of DNP 5 mg/kg, rat) was about 120 µM and the “area under the plasma DNP concentration curve” value (in vivo [4]; oral, rats, 1 mg/kg ERDNP versus 25 mg/kg DNP) was 4,311±555. The “time of maximum concentration of DNP” value (in vivo [4]; plasma, rats, 1 mg/kg ERDNP versus 25 mg/kg DNP) was “one”.
